The source of these data is PubChem BioAssay (NCI).

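Briefly, cells in 96-well plates were exposed to five compound concentrations for 48 h, and endpoints were estimated by linear interpolation. Here, GI50 denotes the concentration required for 50% inhibition of growth. TGI: total growth inhibition.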

Among the test systems are SF-539 CNS; EKVX NSCLC; HOP-62 NSCLC; M14 melanoma; OVCAR-3 ovarian; UACC-257 melanoma; 786-0 renal; SR leukemia; HT29 colon; KM12 colon.
Common to all, as to test: growth of human tumour cells (NCI), 48 h

As to `Cc1cc(O)c(C2=NN(c3ccc(S(N)(=O)=O)cc3)C(c3ccc(N(C)C)cc3)C2)c(C)c1Cl` (stereo not given), the GI50 with SF-539 CNS was 15.7 µM; in the assay on EKVX NSCLC it was 13.3 µM; in the assay with HOP-62 NSCLC, 18.6 µM; with M14 melanoma it was 14 µM; in the assay with OVCAR-3 ovarian, 17.8 µM; in the assay on UACC-257 melanoma, 26.3 µM. Further, the GI50 in the assay with 786-0 renal is 16.8 µM; in the assay on SR leukemia, 14.1 µM; with HT29 colon, 10.9 µM; in the assay on KM12 colon, 13.3 µM. For the same compound, the TGI amounted to 29.3 µM in the assay on SF-539 CNS; 36.1 µM in the assay on EKVX NSCLC; 34.8 µM with HOP-62 NSCLC; 29.4 µM with M14 melanoma; 33.3 µM in the assay on OVCAR-3 ovarian; 63.1 µM with UACC-257 melanoma. The TGI in the assay with 786-0 renal came out at 32.2 µM; with SR leukemia it was 41 µM; in the assay with HT29 colon, 25.8 µM; with KM12 colon, 28.3 µM.

For `O=c1cc(-c2ccccc2)oc2cc(O)cc(O)c12`, the TGI with SF-539 CNS was 31.3 µM; with EKVX NSCLC, 72 µM; in the assay with HOP-62 NSCLC it was over 100 µM; in the assay with M14 melanoma, 82.9 µM; in the assay with OVCAR-3 ovarian, 82.1 µM; with UACC-257 melanoma it was 62.3 µM. The TGI was 60.1 µM in the assay on 786-0 renal, 65.6 µM in the assay with SR leukemia, over 100 µM with HT29 colon and 39.6 µM with KM12 colon.

On to `O=C(O)CCC/C=C\C[C@H]1C=CC(=O)/C1=C/C[C@@H](O)CCc1cccc(C(F)(F)F)c1`, for which the GI50 with SF-539 CNS is 2.46 µM; in the assay on EKVX NSCLC, 3.73 µM; in the assay on HOP-62 NSCLC it was 2.93 µM; in the assay with M14 melanoma, 2 µM; in the assay with OVCAR-3 ovarian, 1.99 µM; in the assay on UACC-257 melanoma, 2.36 µM. Moreover, the GI50 in the assay on 786-0 renal was 2.95 µM; in the assay with SR leukemia, 0.604 µM; with HT29 colon, 2.69 µM; in the assay on KM12 colon, 1.89 µM. Further, the TGI stood at 6.57 µM with SF-539 CNS; 14.3 µM in the assay on EKVX NSCLC; 7.27 µM in the assay with HOP-62 NSCLC; 6.76 µM in the assay with M14 melanoma; 5.61 µM with OVCAR-3 ovarian; 7.38 µM in the assay with UACC-257 melanoma. Besides, the TGI is 6.61 µM with 786-0 renal, 7.22 µM in the assay on SR leukemia, 6.41 µM in the assay with HT29 colon and 4.62 µM in the assay with KM12 colon.

With `COc1cc2c(cc1OC)C(OC)N(C)c1c-2ccc2cc3c(cc12)OCO3` (stereo not given), the TGI in the assay on SF-539 CNS was found to be 4.69 µM; in the assay on EKVX NSCLC, 15 µM; in the assay with HOP-62 NSCLC, 7.4 µM; with M14 melanoma, 25.6 µM; with OVCAR-3 ovarian it was 5.68 µM; in the assay with UACC-257 melanoma, 50.2 µM. The TGI was 5.47 µM in the assay with 786-0 renal, over 75 µM with SR leukemia, 7.07 µM in the assay with HT29 colon and 4.45 µM in the assay with KM12 colon.

As for `COc1ccc(Cc2cc3c(cc2OCC(=O)O)OCO3)cc1`, the TGI with SF-539 CNS, with EKVX NSCLC, with HOP-62 NSCLC, in the assay with M14 melanoma, in the assay on OVCAR-3 ovarian and in the assay with UACC-257 melanoma was over 100 µM throughout. Besides, the TGI with 786-0 renal, in the assay on SR leukemia, in the assay on HT29 colon and in the assay with KM12 colon was over 100 µM in each case.

Take `CN(C)CCSc1cccc(-c2cc(-c3cccc(SCCN(C)C)c3)nc(SCCN(C)C)n2)c1`: the TGI in the assay with SF-539 CNS came out at 3.19 µM; in the assay with EKVX NSCLC, 5.24 µM; in the assay on HOP-62 NSCLC, 30.2 µM; with M14 melanoma, 2.99 µM; in the assay with OVCAR-3 ovarian, 21.8 µM; in the assay with UACC-257 melanoma, 3.02 µM. Besides, the TGI in the assay with 786-0 renal amounted to 20.9 µM; in the assay on SR leukemia, 4.49 µM; in the assay with HT29 colon, 3.4 µM; in the assay on KM12 colon it was 3.44 µM.

Regarding `C[C@@H](CN1CC(=O)NC(=O)C1)N1CC(=O)NC(=O)C1`, the TGI was 1060 µM in the assay on SF-539 CNS; 546 µM in the assay with EKVX NSCLC; 328 µM with HOP-62 NSCLC; 1160 µM with M14 melanoma; 767 µM in the assay with OVCAR-3 ovarian; 2390 µM with UACC-257 melanoma. The TGI was 1120 µM in the assay on 786-0 renal, 1470 µM in the assay with SR leukemia, 950 µM in the assay with HT29 colon and 2170 µM in the assay with KM12 colon.

With `CN1C(=O)[C@@H](NC(=O)[C@H](CCC(F)(F)F)[C@H](CCC(F)(F)F)C(N)=O)N=C(c2ccccc2)c2ccccc21`, the GI50 is 50.3 µM in the assay on SF-539 CNS; 68 µM with EKVX NSCLC; over 100 µM in the assay with HOP-62 NSCLC; 50.9 µM in the assay on M14 melanoma; over 100 µM in the assay on OVCAR-3 ovarian; 67.7 µM in the assay with UACC-257 melanoma. Also, the GI50 in the assay on 786-0 renal is over 100 µM; in the assay with SR leukemia, 28.4 µM; with HT29 colon it was over 100 µM; in the assay on KM12 colon it was over 100 µM. Also, the TGI with SF-539 CNS, in the assay with EKVX NSCLC, in the assay with HOP-62 NSCLC, in the assay with M14 melanoma, in the assay on OVCAR-3 ovarian and with UACC-257 melanoma was over 100 µM in each case. The TGI in the assay on 786-0 renal, with SR leukemia, with HT29 colon and in the assay with KM12 colon was over 100 µM in each case.

As for `C#CCN(N=O)C(=O)NC(CCCNC(=O)OCc1ccccc1)C(=O)OCc1ccccc1` (stereo not given), the TGI with SF-539 CNS, in the assay with EKVX NSCLC, with HOP-62 NSCLC, with M14 melanoma, with OVCAR-3 ovarian and in the assay with UACC-257 melanoma was over 100 µM in each case. In addition, the TGI is over 100 µM in the assay on 786-0 renal, 84.2 µM in the assay on SR leukemia, over 100 µM with HT29 colon and over 100 µM in the assay on KM12 colon.

For the compound `O=C(O)c1cc2ccccc2oc1=O`, the TGI in the assay on SF-539 CNS, in the assay on EKVX NSCLC, in the assay with HOP-62 NSCLC, with M14 melanoma, in the assay on OVCAR-3 ovarian and in the assay on UACC-257 melanoma was over 100 µM in each case. The TGI in the assay on 786-0 renal, with SR leukemia, with HT29 colon and in the assay on KM12 colon was over 100 µM throughout.

As for `O=C1c2ccccc2NC1(c1ccccc1)c1c(-c2ccccc2)[nH]c2ccccc12` (stereo not given), the TGI in the assay with SF-539 CNS, in the assay on EKVX NSCLC, in the assay with HOP-62 NSCLC, with M14 melanoma, with OVCAR-3 ovarian and in the assay on UACC-257 melanoma was over 100 µM in each case. In addition, the TGI in the assay with 786-0 renal, in the assay with SR leukemia, in the assay with HT29 colon and with KM12 colon was over 100 µM throughout.
